Assay results as given in US20070254956A1, “Medicament for Therapeutic and/or Preventive Treatment of Restenosis or Reocclusion After Vascular Recanalization Operation” (priority 2003, published 2007).

Tested on: proliferation of neointima
Assay: Test for inhibition of proliferation of neointima in a mouse model of femoral arterial angiopathy
Assay type: in vivo
Conditions: male C57BL/6 mouse, 1 mg/kg/day intraperitoneally for 10 days
Experimental: As an angiopathy model resulting from a vascular recanalization operation, a treatment was carried out in which 0.015 inch spring wires were implanted into both […] of 20-25 g male C57BL/6 mouse under anesthesia, and placed for 1 minute to extend the arteries. After the operation, the compound represented by the formula (I) was administered 1 mg/kg/day intraperitoneally for 10 days. Blood vessels were extirpated 4 weeks after the operation and histopathologically examined. Influences between the drug administered group and non-administered group on the cross-section ratio of neointima and tunica media (neointima/tunica media) were compared.

O=C(Nc1cc(C(F)(F)F)cc(C(F)(F)F)c1)c1cc(Cl)ccc1O [compound (I)]
cross-section ratio of neointima and tunica media (neointima/tunica media) (wire-injured femoral arteries, vessels examined 4 weeks after operation, non-administered group 2.01±0.15): 1.01±0.27
inhibition of the proliferation of neointima after the angiopathy (4 weeks after operation): strongly inhibited the proliferation of neointima
